Test results from PubChem BioAssay (NCI).
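Briefly, cells in 96-well plates were exposed to five compound concentrations for 48 h, and endpoints were estimated by linear interpolation. TGI is the concentration that stops growth completely.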

How the values were obtained:
Test in all cases: NCI-60 cell line screen, 48 h
EKVX NSCLC = test system: EKVX NSCLC
SK-MEL-28 melanoma = test system: SK-MEL-28 melanoma
SF-295 CNS = test system: SF-295 CNS
NCI-H460 lung = test system: NCI-H460 lung
HOP-92 NSCLC = test system: HOP-92 NSCLC
OVCAR-4 ovarian = test system: OVCAR-4 ovarian
COLO 205 colon = test system: COLO 205 colon
HCC-2998 colon = test system: HCC-2998 colon
A549 NSCLC = test system: A549 NSCLC
HL-60(TB) leukemia = test system: HL-60(TB) leukemia
IGROV1 ovarian = test system: IGROV1 ovarian
M14 melanoma = test system: M14 melanoma
HOP-62 NSCLC = test system: HOP-62 NSCLC
RXF 393 renal = test system: RXF 393 renal
TK-10 renal = test system: TK-10 renal
SNB-19 CNS = test system: SNB-19 CNS
NCI/ADR-RES ovarian = test system: NCI/ADR-RES ovarian
MDA-MB-435 = test system: MDA-MB-435
MDA-MB-231 breast = test system: MDA-MB-231 breast
ACHN renal = test system: ACHN renal
HCT-15 colon = test system: HCT-15 colon
UACC-62 melanoma = test system: UACC-62 melanoma
UO-31 renal = test system: UO-31 renal
KM12 colon = test system: KM12 colon
MDA-N = test system: MDA-N
OVCAR-5 ovarian = test system: OVCAR-5 ovarian
UACC-257 melanoma = test system: UACC-257 melanoma
K-562 leukemia = test system: K-562 leukemia
SK-MEL-5 melanoma = test system: SK-MEL-5 melanoma
SF-539 CNS = test system: SF-539 CNS
BT-549 breast = test system: BT-549 breast
MOLT-4 leukemia = test system: MOLT-4 leukemia
A498 renal = test system: A498 renal
HT29 colon = test system: HT29 colon
SW-620 colon = test system: SW-620 colon
DU-145 prostate = test system: DU-145 prostate
SK-MEL-2 melanoma = test system: SK-MEL-2 melanoma
HCT-116 colon = test system: HCT-116 colon
OVCAR-8 ovarian = test system: OVCAR-8 ovarian
786-0 renal = test system: 786-0 renal
T-47D breast = test system: T-47D breast
SN12C renal = test system: SN12C renal
MCF7 breast = test system: MCF7 breast
CCRF-CEM leukemia = test system: CCRF-CEM leukemia
SF-268 CNS = test system: SF-268 CNS
SK-OV-3 ovarian = test system: SK-OV-3 ovarian
HS 578T breast = test system: HS 578T breast
NCI-H226 lung = test system: NCI-H226 lung
RPMI-8226 leukemia = test system: RPMI-8226 leukemia
SNB-75 CNS = test system: SNB-75 CNS
OVCAR-3 ovarian = test system: OVCAR-3 ovarian
U251 CNS = test system: U251 CNS
NCI-H23 lung = test system: NCI-H23 lung
PC-3 prostate = test system: PC-3 prostate
NCI-H522 lung = test system: NCI-H522 lung
MALME-3M melanoma = test system: MALME-3M melanoma
SR leukemia = test system: SR leukemia
LOX IMVI melanoma = test system: LOX IMVI melanoma
CAKI-1 renal = test system: CAKI-1 renal

O=C(Cc1ccccc1)NN1C(=O)/C(=C\c2ccc(O)cc2)SC1=Nc1ccccc1
TGI (EKVX NSCLC): > 100 µM | TGI (SK-MEL-28 melanoma): > 100 µM | TGI (SF-295 CNS): > 100 µM | TGI (NCI-H460 lung): > 100 µM | TGI (HOP-92 NSCLC): > 100 µM | TGI (OVCAR-4 ovarian): > 100 µM | TGI (COLO 205 colon): > 100 µM | TGI (HCC-2998 colon): > 100 µM | TGI (A549 NSCLC): > 100 µM | TGI (HL-60(TB) leukemia): > 100 µM | TGI (IGROV1 ovarian): > 100 µM | TGI (M14 melanoma): > 100 µM | TGI (HOP-62 NSCLC): > 100 µM | TGI (RXF 393 renal): > 100 µM | TGI (TK-10 renal): > 100 µM | TGI (SNB-19 CNS): > 100 µM | TGI (NCI/ADR-RES ovarian): > 100 µM | TGI (MDA-MB-435): > 100 µM | TGI (MDA-MB-231 breast): > 100 µM | TGI (ACHN renal): > 100 µM | TGI (HCT-15 colon): > 100 µM | TGI (UACC-62 melanoma): > 100 µM | TGI (UO-31 renal): > 100 µM | TGI (KM12 colon): > 100 µM | TGI (MDA-N): > 100 µM | TGI (OVCAR-5 ovarian): > 100 µM | TGI (UACC-257 melanoma): > 100 µM | TGI (K-562 leukemia): > 100 µM | TGI (SK-MEL-5 melanoma): > 100 µM | TGI (SF-539 CNS): > 100 µM | TGI (BT-549 breast): > 100 µM | TGI (MOLT-4 leukemia): > 100 µM | TGI (A498 renal): > 100 µM | TGI (HT29 colon): > 100 µM | TGI (SW-620 colon): > 100 µM | TGI (DU-145 prostate): > 100 µM | TGI (SK-MEL-2 melanoma): > 100 µM | TGI (HCT-116 colon): > 100 µM | TGI (OVCAR-8 ovarian): > 100 µM | TGI (786-0 renal): > 100 µM | TGI (T-47D breast): > 100 µM | TGI (SN12C renal): > 100 µM | TGI (MCF7 breast): > 100 µM | TGI (CCRF-CEM leukemia): > 100 µM | TGI (SF-268 CNS): > 100 µM | TGI (SK-OV-3 ovarian): > 100 µM | TGI (HS 578T breast): > 100 µM | TGI (NCI-H226 lung): > 100 µM | TGI (RPMI-8226 leukemia): > 100 µM | TGI (SNB-75 CNS): > 100 µM | TGI (OVCAR-3 ovarian): > 100 µM | TGI (U251 CNS): > 100 µM | TGI (NCI-H23 lung): > 100 µM

O=C(NNCc1ccc(Cl)cc1)Nc1cccc2ccccc12
TGI (EKVX NSCLC): > 100 µM | TGI (SK-MEL-28 melanoma): > 100 µM | TGI (SF-295 CNS): > 100 µM | TGI (NCI-H460 lung): > 100 µM | TGI (HOP-92 NSCLC): > 100 µM | TGI (PC-3 prostate): > 100 µM | TGI (NCI-H522 lung): > 100 µM | TGI (OVCAR-4 ovarian): > 100 µM | TGI (COLO 205 colon): > 100 µM | TGI (HCC-2998 colon): > 100 µM | TGI (HL-60(TB) leukemia): > 100 µM | TGI (IGROV1 ovarian): > 100 µM | TGI (M14 melanoma): > 100 µM | TGI (HOP-62 NSCLC): > 100 µM | TGI (RXF 393 renal): > 100 µM | TGI (TK-10 renal): > 100 µM | TGI (SNB-19 CNS): > 100 µM | TGI (NCI/ADR-RES ovarian): > 100 µM | TGI (MDA-MB-435): > 100 µM | TGI (ACHN renal): > 100 µM | TGI (HCT-15 colon): > 100 µM | TGI (UACC-62 melanoma): > 100 µM | TGI (UO-31 renal): > 100 µM | TGI (KM12 colon): > 100 µM | TGI (MDA-N): > 100 µM | TGI (OVCAR-5 ovarian): > 100 µM | TGI (UACC-257 melanoma): > 100 µM | TGI (K-562 leukemia): > 100 µM | TGI (SK-MEL-5 melanoma): > 100 µM | TGI (SF-539 CNS): > 100 µM | TGI (BT-549 breast): > 100 µM | TGI (MALME-3M melanoma): > 100 µM | TGI (MOLT-4 leukemia): > 100 µM | TGI (HT29 colon): > 100 µM | TGI (SW-620 colon): > 100 µM | TGI (DU-145 prostate): > 100 µM | TGI (SK-MEL-2 melanoma): > 100 µM | TGI (HCT-116 colon): > 100 µM | TGI (OVCAR-8 ovarian): > 100 µM | TGI (786-0 renal): > 100 µM | TGI (T-47D breast): > 100 µM | TGI (SN12C renal): > 100 µM | TGI (MCF7 breast): > 100 µM | TGI (CCRF-CEM leukemia): > 100 µM | TGI (SR leukemia): > 100 µM | TGI (SF-268 CNS): > 100 µM | TGI (NCI-H226 lung): > 100 µM | TGI (RPMI-8226 leukemia): 84.4 µM | TGI (LOX IMVI melanoma): > 100 µM | TGI (SNB-75 CNS): > 100 µM | TGI (CAKI-1 renal): > 100 µM | TGI (OVCAR-3 ovarian): > 100 µM | TGI (U251 CNS): > 100 µM | TGI (NCI-H23 lung): > 100 µM
